Results as given in patent US20240336654A1, “ANTIMICROBIAL PEPTIDOMIMETICS” (SPEXIS AG, priority 2021, published 2024).
Where a SMILES comes first, the peptide text is derived from it. Bridges are numbered along the chain shown (N, C = ends). [ ]: non-standard residue; d: D form. The star is where a group is joined. Val(Nα-amidino) = CC(C)[C@H](NC(=N)N)C(=O)*; dDab(iPr) = CC(C)NCC[C@@H](N)C(=O)O; Hyp = O=C(O)[C@@H]1C[C@@H](O)CN1; Cit = NC(=O)NCCC[C@H](N)C(=O)O; Pen = CC(C)(S)[C@H](N)C(=O)O; dDab = NCC[C@@H](N)C(=O)O; Orn = NCCC[C@H](N)C(=O)O; Dab = NCC[C@H](N)C(=O)O

How the values were obtained:
Format in all cases: cell-based
[1] = tested on: Escherichia coli MCR-1 Af 45; conditions: MCR-1 Af 45
In short: (§1)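 The MIC is the lowest peptide concentration, in μg/mL, with no visible growth after 18-20 h incubation at 35 °C. Serial two-fold peptide dilutions in water with 0.002% P-80 final were added to bacteria in cation-adjusted MHII broth, about 5×10^5 CFU/mL, following modified CLSI microdilution.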

[2] = tested on: Klebsiella pneumoniae SSI3010; conditions: SSI3010
In short: as §1

[3] = tested on: Escherichia coli ATCC 25922; conditions: ATCC 25922
In short: as §1

[4] = tested on: human red blood cells (hRBC); conditions: red cells of human, 1 h, 200 μg/mL
In short: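 Peptides at 200 μg/mL incubated 1 h at 37 °C with 20% (v/v) washed human RBC, shaking. Hemolysis from supernatant OD540, expressed as percent of 2.5% Triton X-100 lysis, with PBS as 0%.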

SMILES | Escherichia coli MCR-1 Af45 MIC [1] | Klebsiella pneumoniae SSI3010 MIC [2] | Escherichia coli ATCC 25922 MIC [3] | Hemolysis at 0.2 g/L [4]
CC[C@H](C)[C@H](NC(=O)[C@@H]1C[C@@H](O)CN1C(=O)[C@@H](NC(=N)N)C(C)C)C(=O)N[C@@H]1C(=O)N[C@@H](Cc2ccc(O)cc2)C(=O)N[C@@H](CO)C(=O)N[C@@H](CC(N)=O)C(=O)N[C@@H](CCCNC(=N)N)C(=O)N[C@@H](CCN)C(=O)N[C@@H](CC(N)=O)C(=O)N[C@H](CCN)C(=O)N[C@@H](CCCCN)C(=O)N[C@@H](CCN)C(=O)N[C@@H](CCN)C(=O)N[C@H](C(=O)N[C@@H](Cc2ccc(O)cc2)C(=O)O)CSSC1(C)C [Example 94, Gua-Val-Hyp-Ile-Pen-Tyr-Ser-Asn-Arg-Dab-Asn-^DDab-Lys-Dab-Dab-Cys-Tyr] ({Val(Nα-amidino)}-[Hyp]I[Pen]YSNR[Dab]N[dDab]K[Dab][Dab]CY-OH; disulfide 3-14) | 0.125 µg/mL | 0.25 µg/mL | 0.25 µg/mL | <1%
CC[C@H](C)[C@H](NC(=O)[C@@H]1C[C@@H](O)CN1C(=O)[C@@H](NC(=N)N)C(C)C)C(=O)N[C@@H]1C(=O)N[C@@H](Cc2ccc(O)cc2)C(=O)N[C@@H]([C@@H](C)O)C(=O)N[C@@H](CC(N)=O)C(=O)N[C@@H](CCCNC(=N)N)C(=O)N[C@@H](CCN)C(=O)N[C@@H]([C@@H](C)O)C(=O)N[C@H](CCNC(C)C)C(=O)N[C@@H](CCCCN)C(=O)N[C@@H](CCN)C(=O)N[C@@H](CCN)C(=O)N[C@H](C(=O)N[C@@H](Cc2ccc(O)cc2)C(=O)O)CSSC1(C)C [Example 95, Gua-Val-Hyp-Ile-Pen-Tyr-Thr-Asn-Arg-Dab-Thr-^DDab(iPr)-Lys-Dab-Dab-Cys-Tyr] ({Val(Nα-amidino)}-[Hyp]I[Pen]YTNR[Dab]T[dDab(iPr)]K[Dab][Dab]CY-OH; disulfide 3-14) | 0.125 µg/mL | 0.25 µg/mL | 0.125 µg/mL | <1%
CC[C@H](C)[C@H](NC(=O)[C@@H]1C[C@@H](O)CN1C(=O)[C@@H](NC(=N)N)C(C)C)C(=O)N[C@@H]1C(=O)N[C@@H](Cc2ccc(O)cc2)C(=O)N[C@@H]([C@@H](C)O)C(=O)N[C@@H](CC(N)=O)C(=O)N[C@@H](CCCNC(=N)N)C(=O)N[C@@H](CCN)C(=O)N[C@@H]([C@@H](C)O)C(=O)N[C@H](CCNC(C)C)C(=O)N[C@@H](CO)C(=O)N[C@@H](CCN)C(=O)N[C@@H](CCN)C(=O)N[C@H](C(=O)N[C@@H](Cc2ccc(O)cc2)C(=O)O)CSSC1(C)C [Example 96, Gua-Val-Hyp-Ile-Pen-Tyr-Thr-Asn-Arg-Dab-Thr-^DDab(iPr)-Ser-Dab-Dab-Cys-Tyr] ({Val(Nα-amidino)}-[Hyp]I[Pen]YTNR[Dab]T[dDab(iPr)]S[Dab][Dab]CY-OH; disulfide 3-14) | 0.125 µg/mL | 0.25 µg/mL | 0.125 µg/mL | <1%
CC[C@H](C)[C@H](NC(=O)[C@@H]1C[C@@H](O)CN1C(=O)[C@@H](NC(=N)N)C(C)C)C(=O)N[C@@H]1C(=O)N[C@@H](Cc2ccc(O)cc2)C(=O)N[C@@H]([C@@H](C)O)C(=O)N[C@@H](CC(N)=O)C(=O)N[C@@H](CCCNC(=N)N)C(=O)N[C@@H](CCN)C(=O)N[C@@H]([C@@H](C)O)C(=O)N[C@H](CCN)C(=O)N[C@@H](CCCNC(N)=O)C(=O)N[C@@H](CCN)C(=O)N[C@@H](CCN)C(=O)N[C@H](C(=O)N[C@@H](Cc2ccc(O)cc2)C(=O)O)CSSC1(C)C [Example 97, Gua-Val-Hyp-Ile-Pen-Tyr-Thr-Asn-Arg-Dab-Thr-^DDab-Cit-Dab-Dab-Cys-Tyr] ({Val(Nα-amidino)}-[Hyp]I[Pen]YTNR[Dab]T[dDab][Cit][Dab][Dab]CY-OH; disulfide 3-14) | 0.125 µg/mL | 0.25 µg/mL | 0.125 µg/mL | <1%
CC[C@H](C)[C@H](NC(=O)[C@@H]1C[C@@H](O)CN1C(=O)[C@@H](NC(=N)N)C(C)C)C(=O)N[C@@H]1C(=O)N[C@@H](Cc2ccc(O)cc2)C(=O)N[C@@H]([C@@H](C)O)C(=O)N[C@@H](CC(N)=O)C(=O)N[C@@H](CCCNC(=N)N)C(=O)N[C@@H](CCN)C(=O)N[C@@H]([C@@H](C)O)C(=O)N[C@H](CCN)C(=O)N[C@@H](CCCCN)C(=O)N[C@@H](CCN)C(=O)N[C@@H](CCCNC(N)=O)C(=O)N[C@H](C(=O)N[C@@H](Cc2ccc(O)cc2)C(=O)O)CSSC1(C)C [Example 98, Gua-Val-Hyp-Ile-Pen-Tyr-Thr-Asn-Arg-Dab-Thr-^DDab-Lys-Dab-Cit-Cys-Tyr] ({Val(Nα-amidino)}-[Hyp]I[Pen]YTNR[Dab]T[dDab]K[Dab][Cit]CY-OH; disulfide 3-14) | 0.125 µg/mL | 0.5 µg/mL | 0.25 µg/mL | <1%
CC[C@H](C)[C@H](NC(=O)[C@@H]1C[C@@H](O)CN1C(=O)[C@@H](NC(=N)N)C(C)C)C(=O)N[C@@H]1C(=O)N[C@@H](Cc2ccc(O)cc2)C(=O)N[C@@H](CO)C(=O)N[C@@H](CC(N)=O)C(=O)N[C@@H](CCCNC(=N)N)C(=O)N[C@@H](CCN)C(=O)N[C@@H]([C@@H](C)O)C(=O)N[C@H](CCN)C(=O)N[C@@H](CO)C(=O)N[C@@H](CCN)C(=O)N[C@@H](CCN)C(=O)N[C@H](C(=O)N[C@@H](Cc2ccc(O)cc2)C(=O)O)CSSC1(C)C [Example 99, Gua-Val-Hyp-Ile-Pen-Tyr-Ser-Asn-Arg-Dab-Thr-^DDab-Ser-Dab-Dab-Cys-Tyr] ({Val(Nα-amidino)}-[Hyp]I[Pen]YSNR[Dab]T[dDab]S[Dab][Dab]CY-OH; disulfide 3-14) | 0.125 µg/mL | 0.25 µg/mL | 0.25 µg/mL | <1%
CC[C@H](C)[C@H](NC(=O)[C@@H]1C[C@@H](O)CN1C(=O)[C@@H](NC(=N)N)C(C)C)C(=O)N[C@@H]1C(=O)N[C@@H](Cc2ccc(O)cc2)C(=O)N[C@@H]([C@@H](C)O)C(=O)N[C@@H](CC(N)=O)C(=O)N[C@@H](CCCNC(=N)N)C(=O)N[C@@H](CCN)C(=O)N[C@@H]([C@@H](C)O)C(=O)N[C@H](CCN)C(=O)N[C@@H](CO)C(=O)N[C@@H](CCN)C(=O)N[C@@H](CCCN)C(=O)N[C@H](C(=O)N[C@@H](Cc2ccc(O)cc2)C(=O)O)CSSC1(C)C [Example 100, Gua-Val-Hyp-Ile-Pen-Tyr-Thr-Asn-Arg-Dab-Thr-^DDab-Ser-Dab-Orn-Cys-Tyr] ({Val(Nα-amidino)}-[Hyp]I[Pen]YTNR[Dab]T[dDab]S[Dab][Orn]CY-OH; disulfide 3-14) | 0.25 µg/mL | 0.5 µg/mL | 0.25 µg/mL | <1%
CC[C@H](C)[C@H](NC(=O)[C@@H]1C[C@@H](O)CN1C(=O)[C@@H](NC(=N)N)C(C)C)C(=O)N[C@@H]1C(=O)N[C@@H](Cc2ccc(O)cc2)C(=O)N[C@@H](CCN)C(=O)N[C@@H](CC(N)=O)C(=O)N[C@@H](CCCNC(=N)N)C(=O)N[C@@H](CCN)C(=O)N[C@@H]([C@@H](C)O)C(=O)N[C@H](CCN)C(=O)N[C@@H](CCCCN)C(=O)N[C@@H]([C@@H](C)O)C(=O)N[C@@H](CCN)C(=O)N[C@H](C(=O)N[C@@H](Cc2ccc(O)cc2)C(=O)O)CSSC1(C)C [Example 101, Gua-Val-Hyp-Ile-Pen-Tyr-Dab-Asn-Arg-Dab-Thr-^DDab-Lys-Thr-Dab-Cys-Tyr] ({Val(Nα-amidino)}-[Hyp]I[Pen]Y[Dab]NR[Dab]T[dDab]KT[Dab]CY-OH; disulfide 3-14) | 0.125 µg/mL | 0.5 µg/mL | 0.125 µg/mL | <1%
CC[C@H](C)[C@H](NC(=O)[C@@H]1C[C@@H](O)CN1C(=O)[C@@H](NC(=N)N)C(C)C)C(=O)N[C@@H]1C(=O)N[C@@H](Cc2ccc(O)cc2)C(=O)N[C@@H](CCN)C(=O)N[C@@H](CC(N)=O)C(=O)N[C@@H](CCCNC(=N)N)C(=O)N[C@@H](CCN)C(=O)N[C@@H]([C@@H](C)O)C(=O)N[C@H](CCN)C(=O)N[C@@H](CO)C(=O)N[C@@H]([C@@H](C)O)C(=O)N[C@@H](CCN)C(=O)N[C@H](C(=O)N[C@@H](Cc2ccc(O)cc2)C(=O)O)CSSC1(C)C [Example 102, Gua-Val-Hyp-Ile-Pen-Tyr-Dab-Asn-Arg-Dab-Thr-^DDab-Ser-T-Dab-Cys-Tyr] ({Val(Nα-amidino)}-[Hyp]I[Pen]Y[Dab]NR[Dab]T[dDab]ST[Dab]CY-OH; disulfide 3-14) | 0.25 µg/mL | 0.5 µg/mL | 0.25 µg/mL | <1%
CC[C@H](C)[C@H](NC(=O)[C@@H]1C[C@@H](O)CN1C(=O)[C@@H](NC(=N)N)C(C)C)C(=O)N[C@@H]1C(=O)N[C@@H](Cc2ccc(O)cc2)C(=O)N[C@@H]([C@@H](C)O)C(=O)N[C@@H](CC(N)=O)C(=O)N[C@@H](CCCNC(=N)N)C(=O)N[C@H](CCN)C(=O)N[C@@H]([C@@H](C)O)C(=O)N[C@H](CCN)C(=O)N[C@@H](CO)C(=O)N[C@@H](CCN)C(=O)N[C@@H](CCN)C(=O)N[C@H](C(=O)N[C@@H](Cc2ccc(O)cc2)C(=O)O)CSSC1(C)C [Example 103, Gua-Val-Hyp-Ile-Pen-Tyr-Thr-Asn-Arg-^DDab-Thr-^DDab-Ser-Dab-Dab-Cys-Tyr] ({Val(Nα-amidino)}-[Hyp]I[Pen]YTNR[dDab]T[dDab]S[Dab][Dab]CY-OH; disulfide 3-14) | 0.125 µg/mL | 0.25 µg/mL | 0.125 µg/mL | <1%
